{"source": "paper PMC10762078", "about": "“Role of UPF1-LIN28A interaction during early differentiation of pluripotent stem cells” (Nature Communications, 2024)", "test_system": "hPSCs", "test": "RT-qPCR of pluripotency and germ-layer markers during differentiation with CPP-peptides (Supplementary Fig. 7b-e)", "type": "cell-based, human", "details": "for Difference between means (B - A) ± SEM: P8 - P1; for BMP2 mRNA level (RT-qPCR) / BMP4 mRNA level (RT-qPCR) / CDH2 mRNA level (RT-qPCR) / CXCR4 mRNA level (RT-qPCR) / SNAI1 mRNA level (RT-qPCR) / TBXT mRNA level (RT-qPCR): Fig. s7d", "description": "For CPP-conjugated peptide delivery, HeLa, 293T, and PA-1 cells were incubated with CPP-conjugated peptides or CPP-FITC at 2 μM in DMEM with 10% FBS for 12 h a day before cell harvest. hPSCs were treated with CPP-conjugated peptides at 10 μM in mTeSR Plus Medium, and the peptide-containing medium was changed every day over 10 days. The ROCK inhibitor (Tocris Bioscience, Y-27632) treated-hPSCs were dissociated into single cells using Accutase (Merck, SCR005) and differentiated into ectoderm, mesoderm, and endoderm using the STEMdiff Trilineage Differentiation Kit ([…] Technologies, 05230) following the manufacturer’s protocol. Differentiated cells treated with CPP-conjugated peptides were analysed at 0, 3, and 5 days for ectoderm and endoderm, and at 0, 3, and 4 days for mesoderm. […]\ncDNA was synthesised using RevertAid Reverse Transcriptase (Thermo Fisher Scientific, EP0441) with synthesised random hexamer (Macrogen) for total RNA or stem-loop primers for miRNA. For RT-qPCR reactions, the SensiFAST SYBR No-ROX kit (Meridian Bioscience) was used according to the manufacturer’s protocol. All data analysis and visualisation were conducted using R 3.6.1 [www.r-project.org] or GraphPad Prism 10. RT primers for miRNA and RT-qPCR primer sequences are provided in Supplementary Data 6. […]\nFPKM of each gene was presented f r om RNA-seq analysis. b–e hPSCs wer e treated with the indicated peptide during each germ la ye r differentiation. […]\nAn unpaired Student’s t-test was used for a–e. Data are presented as mean values ± SEM. All statistical test us ed wer e two-s ided. T he m inim um number of independent biological replicate experim ents was a–f n = 3. T he experiments wer e conducted three tim es, each iteration producing consistent results.", "note": "Ends that are not written are not given here."}
{"sequence": "KKKWCRKKKSSADEKRYRALKRTAERELLMNA [P8]", "values": [{"measurement": "CXCR4 (RT-qPCR)", "setting": "Day 0, replicate 1, Fig. s7e", "value": 1.088}, {"measurement": "CXCR4 (RT-qPCR)", "setting": "Day 0, replicate 2, Fig. s7e", "value": 0.7848}, {"measurement": "CXCR4 (RT-qPCR)", "setting": "Day 0, replicate 3, Fig. s7e", "value": 1.127}, {"measurement": "CXCR4 (RT-qPCR)", "setting": "Day 3, replicate 1, Fig. s7e", "value": 70.9428}, {"measurement": "CXCR4 (RT-qPCR)", "setting": "Day 3, replicate 2, Fig. s7e", "value": 396.929}, {"measurement": "CXCR4 (RT-qPCR)", "setting": "Day 3, replicate 3, Fig. s7e", "value": 186.896}, {"measurement": "CXCR4 (RT-qPCR)", "setting": "Day 5, replicate 1, Fig. s7e", "value": 166.399}, {"measurement": "CXCR4 (RT-qPCR)", "setting": "Day 5, replicate 2, Fig. s7e", "value": 221.471}, {"measurement": "CXCR4 (RT-qPCR)", "setting": "Day 5, replicate 3, Fig. s7e", "value": 55.5295}, {"measurement": "Difference between means (B - A) ± SEM", "setting": "CXCR4 day 3", "value": "-395.9 ± 135.2"}, {"measurement": "Mean CXCR4 (RT-qPCR)", "setting": "CXCR4 day 3, mean of n = 3, Fig. s7e", "value": 218.3}, {"measurement": "Difference between means (B - A) ± SEM", "setting": "CXCR4 day 5", "value": "-733.3 ± 94.11"}, {"measurement": "Mean CXCR4 (RT-qPCR)", "setting": "CXCR4 day 5, mean of n = 3, Fig. s7e", "value": 147.8}, {"measurement": "FOXA1 (RT-qPCR)", "setting": "Day 0, replicate 1, Fig. s7e", "value": 1.247}, {"measurement": "FOXA1 (RT-qPCR)", "setting": "Day 0, replicate 2, Fig. s7e", "value": 1.413}, {"measurement": "FOXA1 (RT-qPCR)", "setting": "Day 0, replicate 3, Fig. s7e", "value": 0.3396}, {"measurement": "FOXA1 (RT-qPCR)", "setting": "Day 3, replicate 1, Fig. s7e", "value": 74.3757}, {"measurement": "FOXA1 (RT-qPCR)", "setting": "Day 3, replicate 2, Fig. s7e", "value": 54.052}, {"measurement": "FOXA1 (RT-qPCR)", "setting": "Day 3, replicate 3, Fig. s7e", "value": 82.1532}, {"measurement": "FOXA1 (RT-qPCR)", "setting": "Day 5, replicate 1, Fig. s7e", "value": 512.006}, {"measurement": "FOXA1 (RT-qPCR)", "setting": "Day 5, replicate 2, Fig. s7e", "value": 494.768}, {"measurement": "FOXA1 (RT-qPCR)", "setting": "Day 5, replicate 3, Fig. s7e", "value": 555.597}, {"measurement": "Difference between means (B - A) ± SEM", "setting": "FOXA1 day 5", "value": "207.3 ± 47.14"}, {"measurement": "Mean FOXA1 (RT-qPCR)", "setting": "FOXA1 day 5, mean of n = 3, Fig. s7e", "value": 520.8}, {"measurement": "SOX2 difference between means (P8 - P1) ± SEM", "setting": "Fig. s7b, mesoderm, day 4, P8 vs. P1", "value": "0.07995 ± 0.0229"}, {"measurement": "SOX2 mRNA level (RT-qPCR), mean", "setting": "Fig. s7b, mesoderm, day 4, mean of 3 replicates", "value": 0.08192}, {"measurement": "BMP2 mRNA level (RT-qPCR)", "setting": "Day 0, replicate 1", "value": 0.8054}, {"measurement": "BMP4 mRNA level (RT-qPCR)", "setting": "Day 0, replicate 1", "value": 1.545}, {"measurement": "CDH2 mRNA level (RT-qPCR)", "setting": "Day 0, replicate 1", "value": 1.016}, {"measurement": "CXCR4 mRNA level (RT-qPCR)", "setting": "Day 0, replicate 1", "value": 0.9995}, {"measurement": "SNAI1 mRNA level (RT-qPCR)", "setting": "Day 0, replicate 1", "value": 1.4406}, {"measurement": "TBXT mRNA level (RT-qPCR)", "setting": "Day 0, replicate 1", "value": 1.3}, {"measurement": "BMP2 mRNA level (RT-qPCR)", "setting": "Day 0, replicate 2", "value": 1.199}, {"measurement": "BMP4 mRNA level (RT-qPCR)", "setting": "Day 0, replicate 2", "value": 0.6508}, {"measurement": "CDH2 mRNA level (RT-qPCR)", "setting": "Day 0, replicate 2", "value": 0.7569}, {"measurement": "CXCR4 mRNA level (RT-qPCR)", "setting": "Day 0, replicate 2", "value": 1.121}, {"measurement": "SNAI1 mRNA level (RT-qPCR)", "setting": "Day 0, replicate 2", "value": 0.9418}, {"measurement": "TBXT mRNA level (RT-qPCR)", "setting": "Day 0, replicate 2", "value": 0.8652}, {"measurement": "BMP2 mRNA level (RT-qPCR)", "setting": "Day 0, replicate 3", "value": 0.9954}, {"measurement": "BMP4 mRNA level (RT-qPCR)", "setting": "Day 0, replicate 3", "value": 0.8046}, {"measurement": "CDH2 mRNA level (RT-qPCR)", "setting": "Day 0, replicate 3", "value": 1.227}, {"measurement": "CXCR4 mRNA level (RT-qPCR)", "setting": "Day 0, replicate 3", "value": 0.8798}, {"measurement": "SNAI1 mRNA level (RT-qPCR)", "setting": "Day 0, replicate 3", "value": 0.6176}, {"measurement": "TBXT mRNA level (RT-qPCR)", "setting": "Day 0, replicate 3", "value": 0.8351}, {"measurement": "BMP2 mRNA level (RT-qPCR)", "setting": "Day 3, replicate 1", "value": 1.1089}, {"measurement": "BMP4 mRNA level (RT-qPCR)", "setting": "Day 3, replicate 1", "value": 41.4056}, {"measurement": "CDH2 mRNA level (RT-qPCR)", "setting": "Day 3, replicate 1", "value": 19.486}, {"measurement": "CXCR4 mRNA level (RT-qPCR)", "setting": "Day 3, replicate 1", "value": 784.151}, {"measurement": "SNAI1 mRNA level (RT-qPCR)", "setting": "Day 3, replicate 1", "value": 12.8862}, {"measurement": "TBXT mRNA level (RT-qPCR)", "setting": "Day 3, replicate 1", "value": 3854.3}, {"measurement": "BMP2 mRNA level (RT-qPCR)", "setting": "Day 3, replicate 2", "value": 1.096}, {"measurement": "BMP4 mRNA level (RT-qPCR)", "setting": "Day 3, replicate 2", "value": 50.4784}, {"measurement": "CDH2 mRNA level (RT-qPCR)", "setting": "Day 3, replicate 2", "value": 21.455}, {"measurement": "CXCR4 mRNA level (RT-qPCR)", "setting": "Day 3, replicate 2", "value": 774.595}, {"measurement": "SNAI1 mRNA level (RT-qPCR)", "setting": "Day 3, replicate 2", "value": 13.1184}, {"measurement": "TBXT mRNA level (RT-qPCR)", "setting": "Day 3, replicate 2", "value": 4302.87}, {"measurement": "BMP2 mRNA level (RT-qPCR)", "setting": "Day 3, replicate 3", "value": 1.333}, {"measurement": "BMP4 mRNA level (RT-qPCR)", "setting": "Day 3, replicate 3", "value": 53.6277}, {"measurement": "CDH2 mRNA level (RT-qPCR)", "setting": "Day 3, replicate 3", "value": 17.5345}]}
